Data published in PubChem BioAssay AID248 (DTP/NCI, 2004).
Where “and” joins values, the source holds several entries; their conditions need not be identical. Identical values can stand only once. Inconclusive results and toxic doses are left out. Rule as the data show it: active = T/C of 150% or more; inactive = T/C below 125%.

System: L1210 leukemia ip in BDF1 mice, survival T/C
Experiment: NCI In Vivo Anticancer Drug Screen. Data for tumor model L1210 Leukemia (intraperitoneal) in B6D2F1 (BDF1) mice
Details: endpoint: mean survival time, higher = longer survival
How it was run: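 Antitumor effect is assessed in tumor-bearing animals. Survival in the compound arm is compared with a vehicle-dosed control arm and expressed as their quotient.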

[1] = dose: 100.0 mg/kg/injection, schedule: Q04DX003 (ip), vehicle: saline
[2] = dose: 200.0 mg/kg/injection, schedule: Q04DX003 (ip), vehicle: saline
[3] = dose: 400.0 mg/kg/injection, schedule: Q04DX003 (ip), vehicle: saline
[4] = dose: 100.0 mg/kg/injection, schedule: Q04DX003 (ip), vehicle: Klucel (hydroxypropylcellulose) (HPC)
[5] = dose: 200.0 mg/kg/injection, schedule: Q04DX003 (ip), vehicle: Klucel (hydroxypropylcellulose) (HPC)
[6] = dose: 400.0 mg/kg/injection, schedule: Q04DX003 (ip), vehicle: Klucel (hydroxypropylcellulose) (HPC)
[7] = dose: 100.0 mg/kg/injection, schedule: Q01DX001 (ip), vehicle: saline
[8] = dose: 200.0 mg/kg/injection, schedule: Q01DX001 (ip), vehicle: saline
[9] = dose: 400.0 mg/kg/injection, schedule: Q01DX001 (ip), vehicle: saline
[10] = dose: 50.0 mg/kg/injection, schedule: Q01DX001 (ip), vehicle: saline
[11] = dose: 100.0 mg/kg/injection, schedule: Q01DX009 (ip), vehicle: Klucel (hydroxypropylcellulose) (HPC)
[12] = dose: 200.0 mg/kg/injection, schedule: Q01DX009 (ip), vehicle: Klucel (hydroxypropylcellulose) (HPC)
[13] = dose: 400.0 mg/kg/injection, schedule: Q01DX009 (ip), vehicle: Klucel (hydroxypropylcellulose) (HPC)
[14] = dose: 50.0 mg/kg/injection, schedule: Q04DX003 (ip), vehicle: Klucel (hydroxypropylcellulose) (HPC)
[15] = dose: 3.0 mg/kg/injection, schedule: Q04DX003 (ip), vehicle: saline with Tween-80
[16] = dose: 12.0 mg/kg/injection, schedule: Q01DX009 (ip), vehicle: saline with Tween-80
[17] = dose: 12.5 mg/kg/injection, schedule: Q04DX003 (ip), vehicle: saline with Tween-80
[18] = dose: 25.0 mg/kg/injection, schedule: Q01DX009 (ip), vehicle: saline with Tween-80
[19] = dose: 100.0 mg/kg/injection, schedule: Q01DX001 (ip), vehicle: saline with Tween-80
[20] = dose: 200.0 mg/kg/injection, schedule: Q01DX001 (ip), vehicle: saline with Tween-80
[21] = dose: 400.0 mg/kg/injection, schedule: Q01DX001 (ip), vehicle: saline with Tween-80

Measured: T/C

CC1CCOP(=O)(Sc2ccccc2)O1 (centres undefined)
inactive: dose: 75.0 mg/kg/injection, schedule: Q04DX002 (ip), vehicle: Klucel (hydroxypropylcellulose) (HPC) 102 % of control | dose: 100.0 mg/kg/injection, schedule: Q04DX002 (ip), vehicle: Klucel (hydroxypropylcellulose) (HPC) 106 % of control | dose: 150.0 mg/kg/injection, schedule: Q04DX002 (ip), vehicle: Klucel (hydroxypropylcellulose) (HPC) 113 % of control | dose: 200.0 mg/kg/injection, schedule: Q04DX002 (ip), vehicle: Klucel (hydroxypropylcellulose) (HPC) 109 % of control

Cc1cc(/C=C\c2ccccc2Cl)nc2cc(Cl)ccc12
inactive: [1] 102 % of control | [2] 98 % of control | [3] 102 % of control

COc1cc(OC)c(NC(=O)NCCCl)cc1Cl
inactive: [4] 104 % of control | [5] 106 % of control | [6] 97 % of control

Nc1ccccc1C(=O)NO
inactive: [7] 98 % of control | [8] 97 % of control | [9] 97 % of control

CCCC(=O)N1CCC(C)CC1
inactive: [10] 103 % of control | dose: 50.0 mg/kg/injection, schedule: Q01DX009 (ip), vehicle: saline 97 % of control and 98 % of control | dose: 50.0 mg/kg/injection, schedule: Q04DX002 (ip), vehicle: saline 112 % of control | dose: 50.0 mg/kg/injection, schedule: Q04DX003 (ip), vehicle: saline 100 % of control | [7] 100 % of control | dose: 100.0 mg/kg/injection, schedule: Q01DX009 (ip), vehicle: saline 98 % of control | dose: 100.0 mg/kg/injection, schedule: Q04DX002 (ip), vehicle: saline 102 % of control | [1] 107 % of control | [8] 103 % of control | dose: 200.0 mg/kg/injection, schedule: Q01DX009 (ip), vehicle: saline 94 % of control and 113 % of control | dose: 200.0 mg/kg/injection, schedule: Q04DX002 (ip), vehicle: saline 102 % of control | [2] 95 % of control

Cc1csc[n+]1CCS(=O)(=O)[O-]
inactive: [7] 95 % of control | [8] 97 % of control | [9] 97 % of control

Cc1cc(OC(=O)NC2CCCCC2)cc(C)c1Cl
inactive: [11] 95 % of control | [12] 95 % of control | [13] 94 % of control

CC(C)OC(=O)NC1C=CC=CC=C1
inactive: [14] 98 % of control | [4] 93 % of control | [5] 104 % of control | [6] 106 % of control

Cc1cnc2cc(Cl)ccc2n1
inactive: dose: 50.0 mg/kg/injection, schedule: Q01DX009 (ip), vehicle: Klucel (hydroxypropylcellulose) (HPC) 94 % of control | [11] 93 % of control | [4] 102 % of control | [12] 107 % of control | [5] 96 % of control

CC(=O)OC(C#N)c1ccco1 (centres undefined)
inactive: dose: 3.0 mg/kg/injection, schedule: Q01DX009 (ip), vehicle: saline with Tween-80 91 % of control | [15] 105 % of control | dose: 6.0 mg/kg/injection, schedule: Q01DX009 (ip), vehicle: saline with Tween-80 100 % of control | dose: 6.0 mg/kg/injection, schedule: Q04DX003 (ip), vehicle: saline with Tween-80 101 % of control | [16] 91 % of control | dose: 12.0 mg/kg/injection, schedule: Q04DX003 (ip), vehicle: saline with Tween-80 101 % of control | [17] 89 % of control

COCC(=O)OCCCCCOC(=O)COC
inactive: [14] 104 % of control | [4] 102 % of control | [5] 96 % of control | [6] 88 % of control

O=C(Nc1cccc(C(F)(F)F)c1)N(C1CCCCC1)C1CCCCC1
inactive: [11] 92 % of control | [12] 87 % of control | [13] 87 % of control

COc1cc(OC)c(/C=C/c2c3ccccc3cc[n+]2C)c(OC)c1
inactive: dose: 0.78 mg/kg/injection, schedule: Q01DX009 (ip), vehicle: saline with Tween-80 100 % of control | dose: 1.56 mg/kg/injection, schedule: Q01DX009 (ip), vehicle: saline with Tween-80 97 % of control

CC(=O)[O][Sn]([CH2]c1ccccc1)([CH2]c1ccccc1)[CH2]c1ccccc1
inactive: dose: 0.5 mg/kg/injection, schedule: Q04DX003 (ip), vehicle: saline with Tween-80 97 % of control | dose: 1.0 mg/kg/injection, schedule: Q04DX003 (ip), vehicle: saline with Tween-80 96 % of control | [15] 99 % of control | [16] 97 % of control | [18] 100 % of control

CC(=O)CC=NCCN=CCC(C)=O
inactive: [19] 98 % of control | [20] 103 % of control | [21] 95 % of control

CNc1nnnn1Cc1ccccc1
inactive: [1] 105 % of control | [2] 94 % of control | [3] 97 % of control

O=C(Nc1ccc(S(=O)(=O)NC2CCCCC2)cc1)OC(c1ccccc1)c1ccccc1
inactive: [7] 96 % of control | [8] 94 % of control | [9] 100 % of control

CN1CCC(S)(S)CC1
inactive: dose: 12.5 mg/kg/injection, schedule: Q01DX009 (ip), vehicle: saline with Tween-80 105 % of control | [17] 96 % of control | [18] 93 % of control | dose: 25.0 mg/kg/injection, schedule: Q04DX003 (ip), vehicle: saline with Tween-80 102 % of control | dose: 50.0 mg/kg/injection, schedule: Q01DX009 (ip), vehicle: saline with Tween-80 104 % of control | dose: 50.0 mg/kg/injection, schedule: Q04DX003 (ip), vehicle: saline with Tween-80 106 % of control

N/C(=N\O)c1ccc2ccc3cccnc3c2n1
inactive: dose: 100.0 mg/kg/injection, schedule: Q04DX003 (ip), vehicle: saline with Tween-80 102 % of control | dose: 200.0 mg/kg/injection, schedule: Q04DX003 (ip), vehicle: saline with Tween-80 87 % of control

CN(c1ccccc1)c1cc(N)nc(N)n1
inactive: dose: 6.0 mg/kg/injection, schedule: Q01DX Z (ip), vehicle: methylcellulose (MC) 92 % of control

CCCCCCCC(=O)N1CCCC1C(=O)NCCCCC(=O)O (centres undefined)
inactive: dose: 25.0 mg/kg/injection, schedule: Q01DX001 (ip), vehicle: saline 95 % of control | [10] 98 % of control | [7] 95 % of control

CCCCCCCCCCCCCCCCC(CCCCCCCCCCCCCCCC)C1CCCCC1
inactive: [19] 94 % of control | [20] 94 % of control | [21] 90 % of control

COc1ccc(C(=O)/C=C/c2ccc(N(C)C)cc2)cc1
inactive: dose: 37.5 mg/kg/injection, schedule: Q04DX003 (ip), vehicle: saline 95 % of control | dose: 75.0 mg/kg/injection, schedule: Q04DX003 (ip), vehicle: saline 90 % of control | dose: 150.0 mg/kg/injection, schedule: Q04DX003 (ip), vehicle: saline 89 % of control

C=CCN1C(=O)c2ccccc2C1=O
inactive: [11] 100 % of control | [4] 95 % of control | [12] 100 % of control | [5] 95 % of control | [13] 91 % of control | [6] 92 % of control
